Assays:
Assay in all cases: Field trial, post-emergence weed control, visual percent control
Type in all cases: in vivo
[1] = test system: POLPE: lady's-thumb (Polygonum persicaria)
Description: (§1) Nine small plot field trials were established across various ecozones in Alberta, Saskatchewan, Manitoba and Ontario, Canada, between 2011 and 2014 to evaluate potential synergy between 1) halauxifen-methyl (100 grams acid equivalent per kilogram (g ae/kg)), fluroxypyr-meptyl as Starane II EC (333 grams acid equivalent per liter (g ae/L) fluroxypyr), and MCPA 2-ethylhexyl ester (MCPA ester; 600 g ae/L), 2) the halauxifen-methyl+fluroxypyr premix (16.25 g ae/L halauxifen-methyl and 250 g ae/L fluroxypyr-meptyl) and MCPA ester (600 g ae/L), and 3) halauxifen-methyl (100 g ae/kg), fluroxypyr-meptyl as Starane II EC (333 g ae/L fluroxypyr), and 2,4-D 2-ethylhexyl ester (2,4-D ester; 660 g ae/L). In trials evaluating synergy between halauxifen-methyl, fluroxypyr-meptyl, and MCPA ester, actives were applied individually at rates of 6.5, 100, and 420 grams acid equivalent per hectare (g ae/ha), respectively, and in a three-way combination at identical rates. When applied individually, halauxifen-methyl was applied in all trials with Turbocharge adjuvant (50% mineral oil/39.5% surfactant blend) at 0.5% volume per volume (v/v). In trials evaluating synergy between the halauxifen-methyl+fluroxypyr premix, and MCPA ester, premix and MCPA ester were applied individually at rates of 82 g ae/ha (5 g ae/ha halauxifen-methyl+77 g ae/ha fluroxypyr) or 106.5 g ae/ha (6.5 g ae/ha halauxifen-methyl+100 g ae/ha fluroxypyr), and 350 or 420 g ae/ha MCPA ester, respectively, and in a two-way combination at rates of 82 g ae/ha premix+350 g ae/ha MCPA ester or […] premix+420 g ae/ha MCPA ester. When applied individually, the halauxifen-methyl+fluroxypyr premix was applied at a rate of 106.5 g ae/ha without an adjuvant, or at a rate of 82 g ae/ha with Turbocharge adjuvant at 0.5% v/v. In trials evaluating synergy between halauxifen-methyl, fluroxypyr-meptyl, and 2,4-D ester, actives were applied individually at rates of 5, 77, and 350 grams acid equivalent per hectare (g ae/ha), respectively, and in a three-way combination at identical rates. When applied individually, halauxifen-methyl was applied with Intake adjuvant (586 grams per liter (g/L) paraffinic oil/242 g/L alkoxylated alcohol non-ionic surfactants) at 1% volume per volume (v/v).
(§2) Trials were established as randomized complete blocks (RCBD) with four replicates. Individual treatments were 2-3 meters (m) wide and 10-11 m long. An untreated control was included in each trial. All trial sites had naturally occurring populations of weeds, which in some trials were augmented with additional weed seeds during trial establishment.
(§3) Herbicides were applied with backpack, bicycle, or tractor-mounted sprayers using carbon dioxide (CO2) as a propellant. All sprayers delivered a uniform spray pattern that provided thorough coverage of the foliage using a water volume of 100-200 liters per hectare (L/ha). All herbicides were applied post-emergence in the spring to early-summer. At the time of herbicide applications, spring wheat, durum wheat, and winter wheat crops were at the four-leaf to three-node stage. Broadleaf weeds were at the seedling stage at the time of herbicide applications.
(§4) Foliar damage to target pest plants was visually assessed as percent control, compared to an untreated control plot. The assessments were based on a percent visual reduction in pest plant biomass and/or stand reduction of weed population. In general, three-to-four replicates were assessed for each treatment, and the results for each experiment (trial) are presented as overall average control. The efficacy of all treatments was assessed at 13-22 days after application (DAA) for an early season rating, 23-39 DAA for a mid-season rating, and 41-84 DAA for a late-season rating. The data were statistically analyzed using various statistical methods, generally including a Tukey's HSD Factorial Analysis of Variance with a significance level of 5%. […]

[2] = test system: AMBTR: giant ragweed (Ambrosia trifida); details: 49 DAA, ON, halauxifen-methyl 5, fluroxypyr-meptyl 77, 2,4-D ester 350 g ae/ha, each alone or three-way combination
Description: as §1, §2, §3, §4

[3] = test system: GAETE: hemp-nettle (Galeopsis tetrahit); details: 14 DAA, AB
Description: as §1, §2, §3, §4

[4] = test system: STEME: chickweed, common (Stellaria media); details: 59 DAA, AB
Description: as §1, §2, §3, §4

[5] = test system: BRSNN: canola, volunteer (Brassica napus); details: SK
Description: as §1, §2, §3, §4

[6] = test system: TRFPR: red clover (Trifolium pratense); details: 84 DAA, ON, halauxifen-methyl 5, fluroxypyr-meptyl 77, 2,4-D ester 350 g ae/ha, each alone or three-way combination
Description: as §1, §2, §3, §4

[7] = test system: AMBEL: ragweed, common (Ambrosia artemisiifolia); details: 28 DAA, ON, premix 5 + 77 (82) g ae/ha, MCPA ester 350 g ae/ha, alone or combined
Description: as §1, §2, §3, §4

[8] = test system: ARTAB: absinth wormwood (Artemisia absinthium); details: 47 DAA, MB, premix 6.5 + 100 (106.5) g ae/ha, MCPA ester 420 g ae/ha, alone or combined
Description: as §1, §2, §3, §4

[9] = test system: POLCO: wild buckwheat (Polygonum convolvulus); details: premix 6.5 + 100 (106.5) g ae/ha, MCPA ester 420 g ae/ha, alone or combined
Description: as §1, §2, §3, §4

[10] = 14 DAA, AB, halauxifen-methyl 6.5, fluroxypyr-meptyl 100, MCPA ester 420 g ae/ha, each alone or three-way combination
[11] = 49 DAA, AB, halauxifen-methyl 6.5, fluroxypyr-meptyl 100, MCPA ester 420 g ae/ha, each alone or three-way combination
[12] = 57 DAA, AB, halauxifen-methyl 6.5, fluroxypyr-meptyl 100, MCPA ester 420 g ae/ha, each alone or three-way combination
[13] = 59 DAA, AB, halauxifen-methyl 6.5, fluroxypyr-meptyl 100, MCPA ester 420 g ae/ha, each alone or three-way combination
[14] = SK, 49 DAA or 57 DAA, halauxifen-methyl 6.5, fluroxypyr-meptyl 100, MCPA ester 420 g ae/ha, each alone or three-way combination
[15] = halauxifen-methyl 6.5, fluroxypyr-meptyl 100, MCPA ester 420 g ae/ha, each alone or three-way combination
[16] = 14 DAA, halauxifen-methyl 6.5, fluroxypyr-meptyl 100, MCPA ester 420 g ae/ha, each alone or three-way combination
[17] = 33 DAA, halauxifen-methyl 6.5, fluroxypyr-meptyl 100, MCPA ester 420 g ae/ha, each alone or three-way combination
[18] = premix 6.5 + 100 (106.5) g ae/ha, MCPA ester 420 g ae/ha, alone or combined

Q: Which results are given for `CCCCCCC(C)OC(=O)COc1nc(F)c(Cl)c(N)c1Cl` (centres unmarked) [Fluroxypyr-meptyl, 1-methylheptyl 2-[(4-amino-3,5-dichloro-6-fluoro-2-pyridinyl)oxy]acetate]?
A: Obs: Observed percent weed control [1, 10]: 0%; Obs: Observed percent weed control [1, 11]: 0%; Obs: Observed percent weed control [1, 12]: 23%; Obs: Observed percent weed control [1, 13]: 61%; Obs: Observed percent weed control [1, 14]: 25%; Obs: Observed percent weed control [2]: 21.7%; Obs: Observed percent weed control [3, 15]: 39%; Obs: Observed percent weed control [4, 15]: 15%; Obs: Observed percent weed control [5, 16]: 30%; Obs: Observed percent weed control [5, 17]: 20%; Obs: Observed percent weed control [6]: 12.4%

Q: For `CCCCC(CC)COC(=O)COc1ccc(Cl)cc1Cl` (centres unmarked) [2,4-D ester, 2-ethylhexyl(2,4-dichlorophenoxy)acetate], which “Obs: Observed percent weed control” value [2] is on record?
A: The value was 83%.

Q: What about the “Obs: Observed percent weed control” value [6] of the same molecule?
A: The value was 7.4%.

Q: How did the “Obs: Observed percent weed control” value [1, 10] turn out when `CCCCC(CC)COC(=O)COc1ccc(Cl)cc1C` (centres unmarked) [MCPA ester, 2-ethylhexyl 2-(4-chloro-2-methylphenoxy)acetate] was run?
A: Its value is 0%.

Q: And the “Obs: Observed percent weed control” value ([1]; 14 DAA, MB, premix 5 + 77 (82) g ae/ha, MCPA ester 350 g ae/ha, alone or combined)?
A: Its value is 38%.

Q: What about the “Obs: Observed percent weed control” value ([1]; 14 DAA, MB, premix 6.5 + 100 (106.5) g ae/ha, MCPA ester 420 g ae/ha, alone or combined) of the same molecule?
A: Its value is 38%.

Q: And the “Obs: Observed percent weed control” value ([1]; 34 DAA, MB, premix 5 + 77 (82) g ae/ha, MCPA ester 350 g ae/ha, alone or combined)?
A: The value was 40%.

Q: And the “Obs: Observed percent weed control” value ([1]; 34 DAA, MB, premix 6.5 + 100 (106.5) g ae/ha, MCPA ester 420 g ae/ha, alone or combined)?
A: Its value is 40%.

Q: And the “Obs: Observed percent weed control” value ([1]; 49 DAA (likely), MB, premix 6.5 + 100 (106.5) g ae/ha, MCPA ester 420 g ae/ha, alone or combined)?
A: The value was 27%.

Q: And the “Obs: Observed percent weed control” value [1, 11]?
A: The value was 0%.

Q: And the “Obs: Observed percent weed control” value ([1]; 49 DAA, AB, premix 6.5 + 100 (106.5) g ae/ha, MCPA ester 420 g ae/ha, alone or combined)?
A: The value was 0%.

Q: And the “Obs: Observed percent weed control” value ([1]; 54 DAA, MB, premix 6.5 + 100 (106.5) g ae/ha, MCPA ester 420 g ae/ha, alone or combined)?
A: Its value is 38%.

Q: What about the “Obs: Observed percent weed control” value [1, 12] of the same molecule?
A: Its value is 0%.

Q: And the “Obs: Observed percent weed control” value ([1]; 57 DAA, AB, premix 6.5 + 100 (106.5) g ae/ha, MCPA ester 420 g ae/ha, alone or combined)?
A: Its value is 0%.

Q: What about the “Obs: Observed percent weed control” value [1, 13] of the same molecule?
A: The value was 35%.

Q: What about the “Obs: Observed percent weed control” value ([1]; 59 DAA, AB, premix 6.5 + 100 (106.5) g ae/ha, MCPA ester 420 g ae/ha, alone or combined) of the same molecule?
A: Its value is 35%.

Q: And the “Obs: Observed percent weed control” value [1, 14]?
A: Its value is 30%.

Q: And the “Obs: Observed percent weed control” value [7]?
A: The value was 15%.

Q: What about the “Obs: Observed percent weed control” value [3, 15] of the same molecule?
A: Its value is 31%.

Q: What about the “Obs: Observed percent weed control” value [3, 18] of the same molecule?
A: Its value is 31%.

Q: And the “Obs: Observed percent weed control” value [4, 15]?
A: Its value is 0%.

Q: What about the “Obs: Observed percent weed control” value [4, 18] of the same molecule?
A: Its value is 0%.

Q: And the “Obs: Observed percent weed control” value [8]?
A: Its value is 0%.

Q: What about the “Obs: Observed percent weed control” value [5, 16] of the same molecule?
A: Its value is 80%.

Q: And the “Obs: Observed percent weed control” value [5, 17]?
A: The value was 95%.

Q: And the “Obs: Observed percent weed control” value ([5]; 33 DAA, premix 6.5 + 100 (106.5) g ae/ha, MCPA ester 420 g ae/ha, alone or combined)?
A: The value was 95%.

Q: And the “Obs: Observed percent weed control” value ([9]; 35 DAA, MB)?
A: Its value is 0%.

Q: And the “Obs: Observed percent weed control” value ([9]; 47 DAA, MB)?
A: The value was 0%.

Q: What about the “Obs: Observed percent weed control” value ([9]; 63 DAA, AB) of the same molecule?
A: Its value is 43%.

Q: With `COC(=O)c1nc(-c2ccc(Cl)c(OC)c2F)cc(N)c1Cl` [Halauxifen-methyl, methyl 4-amino-3-chloro-6-(4-chloro-2-fluoro-3-methoxyphenyl)-2-pyridinecarboxylate] as the molecule, how does the “Obs: Observed percent weed control” value [1, 10] read?
A: The value was 0%.

Q: What about the “Obs: Observed percent weed control” value [1, 11] of the same molecule?
A: The value was 0%.

Q: What about the “Obs: Observed percent weed control” value [1, 12] of the same molecule?
A: Its value is 0%.

Q: What about the “Obs: Observed percent weed control” value [1, 13] of the same molecule?
A: The value was 33%.

Q: And the “Obs: Observed percent weed control” value [1, 14]?
A: The value was 10%.

Q: What about the “Obs: Observed percent weed control” value [2] of the same molecule?
A: The value was 20%.

Q: What about the “Obs: Observed percent weed control” value [3, 15] of the same molecule?
A: Its value is 79%.

Q: What about the “Obs: Observed percent weed control” value [4, 15] of the same molecule?
A: The value was 24%.

Q: And the “Obs: Observed percent weed control” value [5, 16]?
A: The value was 20%.

Q: What about the “Obs: Observed percent weed control” value [5, 17] of the same molecule?
A: The value was 15%.

Q: And the “Obs: Observed percent weed control” value [6]?
A: Its value is 15%.

From patent US20150196030A1, “HERBICIDAL COMPOSITION CONTAINING 4-AMINO-3-CHLORO-6-(4-CHLORO-2-FLUORO-3-METHOXYPHENYL) PYRIDINE-2-CARBOXYLIC ACID OR DERIVATIVES THEREOF, FLUROXYPYR OR DERIVATIVES THEREOF, AND PHENOXY AUXINS OR DERIVATIVES THEREOF” (DOW AGROSCIENCES LLC, priority 2014, published 2015)
